According to US20150290232A1, “DRUG COMPOSITION FOR TREATING TUMORS AND APPLICATION THEREOF” (priority 2012, published 2015):

How the values were obtained:
Format in all cases: cell-based
[1] = system: Jurkat cells (acute lymphoblastic leukemia); assay: MTT cell viability, leukemia cells, TTD and Acla A alone and combined; settings: Homo sapiens, 72 h
Protocol: (§1) Well-growing leukemia cells were obtained and inoculated into wells of a 96-well cell culture plate at 5000 cells/well. Individual compounds of various concentrations were added, mixed uniformly, and incubated (5% CO2) at 37° C. for 72 hours. Then the cell viability was determined by the MTT method.
(§2) b) Determine the inhibitory effects of TTD in combination with Ada A on leukemia cells in vitro. The pretreatment of the cells was the same as in a). The control group was not treated with the compound while administered. […] After 72 hours of incubation, the MTT method was used for the determination of cell viability. The cell viability of the control group was set to 100% in this experiment, and the TTD, Ada A single drug and combined effects on cell viability (%) were calculated.

[2] = system: kasumi-1 cells (acute myeloid leukemia M2 type); assay: as above; settings: Homo sapiens, Kasumi 1, 72 h
Protocol: as §1, §2

[3] = system: k562/ADR leukemia cells (drug-resistant chronic myeloid leukemia); assay: as above; settings: Homo sapiens, K562/Adr, 72 h
Protocol: as §1, §2

[4] = system: CaES-17 (esophageal cancer cell); assay: MTT cell viability, human solid tumor cells; settings: CaEs17, 72 h
Protocol: (§3) Well-growing cells of above were obtained and inoculated into wells of a 96-well cell culture plate at 5000 cells/well. Individual compounds of various concentrations were added, mixed uniformly, and incubated (5% CO2) at 37° C. for 72 hours. Then the cell viability was determined by the MTT method.
(§4) b) Determine the inhibitory effects of TTD in combination with Ada A on the human solid tumor cells. The pretreatment of the cells was the same as in a). The control group was not treated with the compound while administered. The two single-drug groups were added with respective active component to the concentration under which the IC50 of two compounds in a) achieve. As to the combination group, two compounds were added together into the same group of wells, with the fmal concentration being the concentration to which the IC50 of the single drugs correspond. After 72 hours of incubation, the MTT method was used for the determination of cell viability. The cell viability of the control group was set to 100% in this experiment, and the TTD, Ada A single drug and combined effects on cell viability (%) were calculated.

[5] = system: CNE (nasopharyngeal carcinoma cell); assay: MTT cell viability, human solid tumor cells; settings: 72 h
Protocol: as §3
as §4, with “The two single-drug groups were added with respective active component to the concentration under which the IC50 of two compounds in a) achieve.” left out

[6] = system: Becap-37 (human breast cancer cell); assay: MTT cell viability, human solid tumor cells; settings: 72 h
Protocol: as §3
as §4, with “The two single-drug groups were added with respective active component to the concentration under which the IC50 of two compounds in a) achieve.” left out

[7] = system: MGC-803 (human gastric cancer cell); assay: MTT cell viability, human solid tumor cells; settings: MGC-803, 72 h
Protocol: as §3
as §4, with “The two single-drug groups were added with respective active component to the concentration under which the IC50 of two compounds in a) achieve.” left out

[8] = system: PC-3 (prostate cancer); assay: MTT cell viability, human solid tumor cells; settings: 72 h
Protocol: as §3
as §4, with “The two single-drug groups were added with respective active component to the concentration under which the IC50 of two compounds in a) achieve.” left out

[9] = system: SPC-A-1 (human lung adenocarcinoma cell); assay: MTT cell viability, human solid tumor cells; settings: SPCA1, 72 h
Protocol: as §3
as §4, with “The two single-drug groups were added with respective active component to the concentration under which the IC50 of two compounds in a) achieve.” left out

[10] = system: Huh7 (human liver cancer cell); assay: MTT cell viability, human solid tumor cells; settings: Huh-7, 72 h
Protocol: as §3
as §4, with “The two single-drug groups were added with respective active component to the concentration under which the IC50 of two compounds in a) achieve.” left out

[11] = system: MG63 (osteosarcoma); assay: MTT cell viability, human solid tumor cells; settings: MG-63, 72 h
Protocol: as §3
as §4, with “The two single-drug groups were added with respective active component to the concentration under which the IC50 of two compounds in a) achieve.” left out

[12] = system: Hela (human cervical cancer cell); assay: MTT cell viability, human solid tumor cells; settings: HeLa, 72 h
Protocol: as §3
as §4, with “The two single-drug groups were added with respective active component to the concentration under which the IC50 of two compounds in a) achieve.” left out

[13] = system: Hep2 (laryngeal carcinoma); assay: MTT cell viability, human solid tumor cells; settings: HEp-2, 72 h
Protocol: as §3
as §4, with “The two single-drug groups were added with respective active component to the concentration under which the IC50 of two compounds in a) achieve.” left out

[14] = system: RKO (human colon adenocarcinoma cell); assay: MTT cell viability, human solid tumor cells; settings: 72 h
Protocol: as §3
as §4, with “The two single-drug groups were added with respective active component to the concentration under which the IC50 of two compounds in a) achieve.” left out

[15] = system: U87-MG (malignant glioma cell); assay: MTT cell viability, human solid tumor cells; settings: U-87 MG, 72 h
Protocol: as §3
as §4, with “The two single-drug groups were added with respective active component to the concentration under which the IC50 of two compounds in a) achieve.” left out

[16] = system: Hep G2 (human hepatoma carcinoma cell); assay: MTT cell viability, human solid tumor cells; settings: HepG2, 72 h
Protocol: as §3
as §4, with “The two single-drug groups were added with respective active component to the concentration under which the IC50 of two compounds in a) achieve.” left out

[17] = system: Raji (human Burkitt lymphoma cells); assay: MTT cell viability, lymphoma and myeloma cells; settings: 72 h
Protocol: (§5) Well-growing cells of above were obtained and inoculated into wells of a 96-well cell culture plate at 5000 cells/well. Separate compounds of various concentrations were added, mixed uniformly, and incubated (5% CO2) at 37° C. for 72 hours. Then the cell viability was determined by the MTT method.
(§6) b) Determine the inhibitory effects of TTD in combination with Ada A on the above cells. The pretreatment of the cells was the same as in a). The control group was not treated with the compound while administered. […] As to the combination group, two compounds were added together into the same group of wells, with the fmal concentrations being the concentrations to which the IC50 values of the two single drugs correspond. After 72 hours of incubation, the MTT method was used for the determination of cell viability. The cell viability of the control group was set to 100% in this experiment, and the TTD, Ada A single drug and combined effects on cell viability (%) were calculated.

[18] = system: RPMI 8226 (multiple myeloma); assay: MTT cell viability, lymphoma and myeloma cells; settings: Homo sapiens, RPMI-8226, 72 h
Protocol: as §5, §6

[19] = read-out: concentration (IC50 value of 72 hours)

Work on CC[C@@]1(O)C[C@H](O[C@H]2C[C@H](N(C)C)[C@H](O[C@H]3C[C@H](O)[C@H](O[C@H]4CCC(=O)[C@H](C)O4)[C@H](C)O3)[C@H](C)O2)c2c(cc3c(c2O)C(=O)c2c(O)cccc2C3=O)[C@H]1C(=O)OC [Acla A, aclarubicin A] yielded a viability at 0.029 µg/mL ([1]; read-out: CV (cell viability)) of 58%, an IC50 [1, 19] of 0.029 µg/mL and a viability at 0.04 µg/mL ([2]; read-out: CV (cell viability)) of 52.5%. It also gave an IC50 [2, 19] of 0.04 µg/mL, a viability at 0.09 µg/mL ([3]; read-out: CV (cell viability)) of 49.1% and an IC50 [3, 19] of 0.09 µg/mL. The viability at 0.24 µg/mL ([4]; read-out: CV (cell viability)) was 45.4%, the IC50 [4, 19] was 0.24 µg/mL and the viability at 0.15 µg/mL ([5]; read-out: CV (cell viability)) was 48.9%. For the same compound, the IC50 [5, 19] was 0.15 µg/mL, the viability at 0.5 µg/mL ([6]; read-out: CV (cell viability)) was 44.8% and the IC50 [6, 19] was 0.5 µg/mL. The viability at 0.1 µg/mL ([7]; read-out: CV (cell viability)) was 42.2%, the IC50 [7, 19] was 0.1 µg/mL and the viability at 0.8 µg/mL ([8]; read-out: CV (cell viability)) was 46.1%. It also gave an IC50 [8, 19] of 0.8 µg/mL, a viability at 0.03125 µg/mL ([9]; read-out: CV (cell viability)) of 50.6% and an IC50 [9, 19] of 0.0312 µg/mL. It also gave a viability at 0.05 µg/mL ([10]; read-out: CV (cell viability)) of 44.5%, an IC50 [10, 19] of 0.05 µg/mL and a viability at 0.1 µg/mL ([11]; read-out: CV (cell viability)) of 46.6%. It also gave an IC50 [11, 19] of 0.1 µg/mL, a viability at 0.095 µg/mL ([12]; read-out: CV (cell viability)) of 52.7% and an IC50 [12, 19] of 0.095 µg/mL. It also gave a viability at 0.25 µg/mL ([13]; read-out: CV (cell viability)) of 51%, an IC50 [13, 19] of 0.25 µg/mL and a viability at 0.04 µg/mL ([14]; read-out: CV (cell viability)) of 49.6%. It also gave an IC50 [14, 19] of 0.04 µg/mL, a viability at 0.21 µg/mL ([15]; read-out: CV (cell viability)) of 54.1% and an IC50 [15, 19] of 0.21 µg/mL. It also gave a viability at 0.25 µg/mL ([16]; read-out: CV (cell viability)) of 51.6%, an IC50 [16, 19] of 0.25 µg/mL and a viability at 0.03 µg/mL ([17]; read-out: CV (cell viability)) of 42.6%. It also gave an IC50 [17, 19] of 0.03 µg/mL, a viability at 0.035 µg/mL ([18]; read-out: CV (cell viability)) of 42.1% and an IC50 [18, 19] of 0.035 µg/mL.
